Test results from US20050148034A1, “Methods for identification of modulators of angiogenesis, compounds discovered thereby, and methods of treatment using the compounds” (priority 2002, published 2005).
Like-named read-outs stand apart in the source and are kept apart here.

Tests used:
[1] = test system: human umbilical cord vessel rings; test: Human angiogenesis assay (umbilical artery vessel rings in Matrigel); type: cell-based; conditions: for Microvessel Growth (% Inhibition): vs 0.1% DMSO, three weeks, average of two rings
Description: Fresh human umbilical cords were collected by trained medical personnel under fill donor informed consent from local hospitals. The cords were transported and treated within three hours. Umbilical cords and vessel lumens were rinsed with chilled basal nutrient medium. The artery was removed from the cord using mechanical means, forceps and small surgical scissors in an aseptic field. The vessel was cleaned of connective tissue and vessel rings were cut cross-wise in a length of 1 mm. The rings were placed into EGM-2 medium (Clonetics Corp.) in a 50 ml conical bottom tube and stored at 4° C. Six-well tissue culture plates were covered with […] of Matrigel and allowed to gel for 30-45 min at 37° C., under 5% CO2. The vessel rings were rinsed in EGM-2 medium and placed on the Matrigel-coated wells, covered with additional 250 μl Matrigel, and allowed to gel for 30-45 min at 37° C. (see FIG. 6). The vessels were cultured for 24 hours in 4 ml of EGM-2 to allow the tissue to adapt to its new environment. After 24 hours incubation, the rings were treated either with 0.1% DMSO as control, or different concentrations of compounds (thalidomide or CC4047). Culture medium was changed twice per week for total of three weeks.
The effects of compounds on cultured vessel rings were compared with the effect of DMSO on vessel rings. The results were analyzed using Image-Pro® Plus software (MediaCybernetics, Inc. Carlsbad, Calif.).
These experiments were done in duplicates and the results are the average of two rings in same experiment. A different concentration of Fumagillin is used as positive control in this experiment.

rat aortic rings = test: Rat aortic angiogenesis assay; type: cell-based, Sprague Dawley rats; conditions: for mean microvessel growth (% of control): without microsomes
Procedure: Twelve well tissue culture grade plates were covered with 250 μl of Matrigel and allowed to gel for 30-45 min at 370 C, 5% Co2. Thoracic aortas were excised from eight to ten week old male Sprague Dawley rats and the fibroadipose tissue was removed. The aortas were sectioned into 1 mm long sections, rinsed eight times with EGM-2 (Clonetics Corp), placed on the Matrigel coated wells, covered with additional 250 μl Matrigel, and allowed to gel for 30-45 min at 370 C. The rings were cultured for 24 hours in 2 ml of EGM-2. After 24 hours, recombinant murine endostatin was reconstituted in EBM and added as a single treatment on day 1. Thalidomide was added at different concentrations (1 μg/ml, 5 μg/ml, 10 μg/ml, 50 μg/ml and 100 μg/ml) in the presence or absence of rabbit microsomes as noted in the Table 5. Aortic rings were photographed on days.

[2] = test system: embryonic-like stem cells derived from placenta; test: Marker expression of cultured embryonic-like stem cells (staining score, Table 2); type: cell-based, human; parameters: key to SMC-specific Myosin HC / GFAP / CD34+ / CD45+: −: no staining; +/−: <20% staining; +: 20-50% staining; ++: 50-75% staining; +++: >75% staining; conditions: for CD34+ / CD45+ / GFAP / Nestin / SMC-specific Myosin HC: placental conditioned media, fourteen days of culture; for numbers of cells expressing CD34, CD45 and smooth muscle cell (SMC)-specific myosin heavy chain / numbers of cells expressing nestin and glial fibrillary acidic protein (GFAP): summary of Table 2
Procedure: The following experiments evaluated the effects of Thalomid™, Actimid™ and Revimid™ on the morphological differentiation of embryonic-like stem cells derived from placenta. The morphological differentiation of cultured embryonic-like stem cells was evaluated after fourteen days of culture in the presence of placental conditioned medium and with DMSO (control), EGCF, Thalomid™, Actimid™ or Revimid™.
Embryonic-like stem cells were isolated from placenta as described above in Section 5.4. The embryonic-like stem cells were cultured using the culture conditions described above.
(§1) The cells were scored for the expression of CD34 (a marker of early hematopoietic progenitor cells; also an endothelial cell marker), CD45 (a marker of all hematopoietic cells except erythrocytes), CD105 (a marker of proliferating endothelial cells), smooth muscle cell (SMC)-specific myosin heavy chain, nestin ([…]), and glial fibrillary acidic protein (GFAP). Ratios of CD34 cells/TNC (Total Number of Cells), CD45 cells/TNC and CD105 cells/TNC were also determined.
In Table 2, the scoring was as follows: • −: no staining; +/−: <20% staining+: 20-50% staining; ++: 50-75% staining; +++: >75% staining.

[3] = test system: embryonic-like stem cells derived from placenta; test: Immunostaining for CD34, CD45 and CD105 in cultured placental stem cells (ratios to TNC, Table 3); type: cell-based, human; conditions: for CD34/TNC / CD45/TNC / CD105/TNC: placental conditioned media, 1 μg/ml, 14 days in culture; for numbers of cells expressing CD34, CD45 and CD 105: summary of Table 3
Procedure: as §1
In another experiment, the results of which are summarized in Table 3, embryonic-like stem cells derived from placenta were cultured, using the conditions described in the umbilical vessel ring assay described above, in the presence of placenta-conditioned medium with DMSO (negative control), Thalomid™, Actimid™ or Revimid™. After 14 days in culture, the cells were then immunostained for expression of CD34+, CD45+ and CD 105+.

[4] = test system: embryonic-like stem cells derived from placenta; test: Total vessel area/field and branching/bifurcation of cultured placental embryonic-like stem cells (Table 4); type: cell-based, human; parameters: key to Branching/Bifurcation (+/−): +: a branch or bifurcation was observed; −: no branch or bifurcation was observed; conditions: for branching and/or bifurcation exhibited by the cells / total vessel area/field covered by the cells: summary of Table 4
Procedure: In another experiment, the results of which are summarized in Table 4, embryonic-like stem cells derived from placenta were cultured, using the culture conditions described above, and in the presence of EGCF, DMSO, Thalomid™, Actimid™ or Revimid™.
A “+” means that a branch or bifurcation was observed and a “−” means that no branch or bifurcation was observed. […] See also FIGS. 3A, 3B

[5] = test system: human umbilical cord blood vessel rings; conditions: 10^−5 M, compared with the DMSO (0.5%) diluent control; cited from earlier work
[6] = test system: human umbilical cord blood vessel rings; test: Umbilical cord blood vessel ring angiogenesis assay (validation with known modulators); type: cell-based
Procedure: Blood vessels, approximately 1-2 mm in diameter and 1-2 cm in length, were excised from human umbilical cord within 12 hours of birth. Both arterial and venous tissue were harvested and maintained separately. The vessels were placed in DMEM containing 2.5 μg/ml of fungizone and cut into 1-2 mm length fragments using fine dissecting forceps and iridectomy scissors. Vessel fragments were freed of residual clots and soaked in DMEM before use. Dissecting and sectioning of vessels were performed with the aid of a surgical microscope. Similar angiogenic responses were obtained from blood vessels of venular and arterial origin but for each assay, vessel fragments from only one vessel were used. See FIG. 6 for a graphic depiction of the assay setu.
Assays were performed in petri dishes (10 to 25 cm^2) or 6-well culture plates (Costar, Cambridge, Mass.), which were prepared by pre-coating with either 0.1% gelatin (Sigma, St. Louis, Mo.) or MATRIGEL® (BD Biosciences) to form a matrix. Following the coating of the plates, 50 μl of human cord blood plasma in 5 mL of DMEM were added to each dish/well to form a surface film over the matrix. The film was allowed to set at 37° C. for 90 minutes, after which it was removed, leaving a thin film in each dish/well. Vessel ring segments were then positioned at central locations within the plate or dish. Petri dishes were divided into quarters, and vessel ring segments were placed in the center of each of the quadrants. In the case of 6-well culture plates, a vessel ring segment was placed in each of the wells. Vessel ring segments generally adhered to the coated matrix within 12 hours, allowing for the addition of media without risk of detachment due to buoyancy. […]
Test compounds were administered at the beginning of culture, once the adherent stem cells were selected, or once the vessel rings are determined to have adhered to the matrix. Each test compound is evaluated at various concentrations to enable generation of a dose response analysis. […]
Vessel outgrowth was scored as a quantitative comparison to the positive and negative controls, using the following notations: − negative; +/− minimally above negative control; + low level of outgrowth; ++ moderate level of outgrowth; +++ high level of outgrowth; ++++ positive control level of outgrowth. Vessel outgrowth was also scored morphometrically as the maximal distance of vessel sprout growth in microns from the vessel ring, and as the total area of endothelial cell coverage (ECA)/area of vessel ring (VRA).
Following culture for 14-21 days, as described above, angiogenesis was quantified and compared with control cultures. […]

| Compound | CD34+ ([2]; 1 μg/mL) | CD45+ ([2]; 1 μg/mL) | GFAP ([2]; 1 μg/mL) | Nestin ([2]; 1 μg/mL) | SMC-specific Myosin HC ([2]; 1 μg/mL) | CD34+ ([2]; 10 μg/mL) | CD45+ ([2]; 10 μg/mL) | GFAP ([2]; 10 μg/mL) | Nestin ([2]; 10 μg/mL) | SMC-specific Myosin HC ([2]; 10 μg/mL) | numbers of cells expressing CD34, CD45 and smooth muscle cell (SMC)-specific myosin heavy chain [2] | numbers of cells expressing nestin and glial fibrillary acidic protein (GFAP) [2] | CD34/TNC [3] | CD45/TNC [3] | CD105/TNC [3] | numbers of cells expressing CD34, CD45 and CD 105 [3] | Branching/Bifurcation (+/−) ([4]; 1 μg/ml) | Total Vessel Area/Field (% Coverage) ([4]; 1 μg/ml) | Branching/Bifurcation (+/−) ([4]; 10 μg/ml) | inhibition of angiogenesis ([6]; 100 μg/ml) | also measured |
| --- | --- | --- | --- | --- | --- | --- | --- | --- | --- | --- | --- | --- | --- | --- | --- | --- | --- | --- | --- | --- | --- |
| Nc1cccc2c1C(=O)N(C1CCC(=O)NC1=O)C2=O (centres unmarked) [Actimid, 4-(Amino)-2-(2,6-dioxo(3-piperidyl))-isoindoline-1,3-dione] | − | − | − | ++ (50-75% staining) | − | − | − | + (20-50% staining) | +++ (>75% staining) | − | decreased | increased | 0.04 | 0.94 | 26.3 | decrease | − | 11.3 +/− 2.8 % Coverage | − |  | Microvessel Growth (% Inhibition) ([1]; 0..1 μM): 50.1 % Inhibition; Microvessel Growth (% Inhibition) ([1]; 1 μM): 85 % Inhibition; Microvessel Growth (% Inhibition) ([1]; 10 μM): 100 % Inhibition; formation of microvessel outgrowth ([1]; compared with DMSO treated samples): inhibited the formation of microvessel outgrowth in a dose dependent manner; mean microvessel growth (% of control) (rat aortic rings; 10 μg/ml): 14.2 % of control; mean microvessel growth (% of control) (rat aortic rings; 100 μg/ml): 0.00 % of control; need of rabbit microsomes for inhibition of vessel formation (rat aortic rings; summary of Table 5): did not require microsomes for inhibition of vessel formation; Total Vessel Area/Field (% Coverage) ([4]; 10 μg/ml): 6.7 +/− 4.1 % Coverage; branching and/or bifurcation exhibited by the cells [4]: decreases the branching and/or bifurcation exhibited by the cells; total vessel area/field covered by the cells [4]: decrease in the total vessel area/field covered by the cells |
| C[C@]12CCC(=O)C=C1CC[C@@H]1[C@@H]2[C@@H](O)C[C@@]2(C)[C@H]1CC[C@]2(O)C(=O)CO [hydrocortisone] |  |  |  |  |  |  |  |  |  |  |  |  |  |  |  |  |  |  |  |  | inhibition of angiogenesis [5]: partially inhibited angiogenesis |
| Cc1ccc(C(=O)Nc2ccc(S(=O)(=O)O)c3cc(S(=O)(=O)O)cc(S(=O)(=O)O)c23)cc1NC(=O)c1cccc(NC(=O)Nc2cccc(C(=O)Nc3cc(C(=O)Nc4ccc(S(=O)(=O)O)c5cc(S(=O)(=O)O)cc(S(=O)(=O)O)c45)ccc3C)c2)c1 [suramin] |  |  |  |  |  |  |  |  |  |  |  |  |  |  |  |  |  |  |  | virtually totally inhibited angiogenesis | inhibition of angiogenesis ([6]; 10 μg/ml): the inhibitory activity of this compound is lost |
| low molecular weight heparin |  |  |  |  |  |  |  |  |  |  |  |  |  |  |  |  |  |  |  | small but significant inhibition of angiogenesis |  |
| heparin |  |  |  |  |  |  |  |  |  |  |  |  |  |  |  |  |  |  |  | small but significant inhibition of angiogenesis |  |
| Nc1cccc2c1CN(C1CCC(=O)NC1=O)C2=O (centres unmarked) [Revimid, 3-(4-amino-1-oxo-1,3-dihydro-isoindol-2-yl)-piperidine-2,6-dione] | − | − | + (20-50% staining) | + (20-50% staining) | − | − | − | +++ (>75% staining) | ++ (50-75% staining) | − | decreased | increased | .22 | 1.71 | 17.3 | decrease | − | 13.5 +/− 7.7 % Coverage | − |  | Total Vessel Area/Field (% Coverage) ([4]; 10 μg/ml): 12.1 +/− 7.4 % Coverage; branching and/or bifurcation exhibited by the cells [4]: decreases the branching and/or bifurcation exhibited by the cells; total vessel area/field covered by the cells [4]: decrease in the total vessel area/field covered by the cells |
